Results as given in patent publication US20200278355A1, “CONJUGATED PROTEINS AND USES THEREOF” (THE SCRIPPS RESEARCH INSTITUTE, priority 2017, published 2020).

How the values were obtained:
Format in all cases: cell-based
Details in all cases: 20 μM
NT5DC1 = target: T1, NT5DC1 (Homo sapiens, UniProt Q5TFE4); assay: ABPP-SILAC BPK-29yne competition in H460 cells: NT5DC1
T1 construct: Isotopically labeled H460 cell lines were generated as described above; endogenous in cells; host or cells: H460 (SILAC-labelled)
Experimental: (§1) Isotopically labeled H460 cell lines were generated as described above. Light and heavy cells were treated with compounds (20 μM) or DMSO, respectively, for 3 h, followed by labeling with the BPK-29yne (5 μM) for 30 min. Cells were washed once ice-cold PBS and lysed in 1% Triton 100-X dissolved in PBS with protease inhibitors (Sigma) by sonication. Lysate was adjusted to 1.5 mg ml^−1 in 500 μL. Samples were conjugated by CuAAC to Biotin-PEG4-azide (5 μL of 10 mM stocks in DMSO, final concentration=100 μM). CuAAC “click” mix contained TCEP, TBTA ligand and CuSO4 as detailed for isoTOP-ABPP sample preparation. Samples were further processed as detailed in: isoTOP-ABPP streptavidin enrichment and isoTOP-ABPP trypsin TEV digestion with the following exception: after overnight incubation at 37° C. with trypsin, tryptic digests were separated from the beads with Micro Bio-Spin columns (Bio-Rad) by centrifugation (1,000×g, 1 min). Beads were rinsed once with water (200 μL) and combined with tryptic digests. […]
(§2) The MS2 spectra data were extracted and searched using RAW Convertor and ProLuCID algorithm as described in isoTOP-ABPP peptide and protein quantification. […] Ratios of heavy/light (DMSO/test compound) peaks were calculated using in-house CIMAGE software. […] The mean R values and standard deviation for multiple biological experiments were calculated from the average ratios from each replicate. […]

ALDH1A1 = target: T2, ALDH1A1 (Homo sapiens, UniProt P00352); assay: ABPP-SILAC BPK-29yne competition in H460 cells: ALDH1A1
T2 construct: Isotopically labeled H460 cell lines were generated as described above; endogenous in cells; host or cells: H460 (SILAC-labelled)
Experimental: as §1, §2

TXNDC12 = target: T3, TXNDC12 (Homo sapiens, UniProt O95881); assay: ABPP-SILAC BPK-29yne competition in H460 cells: TXNDC12
T3 construct: endogenous in cells; host or cells: H460
Experimental: as §1, §2

TXNRD1 = target: T4, TXNRD1 (Homo sapiens, UniProt Q16881); assay: ABPP-SILAC BPK-29yne competition in H460 cells: TXNRD1
T4 construct: endogenous in cells; host or cells: H460
Experimental: as §1, §2

GSTO1 = target: T5, GSTO1 (Homo sapiens, UniProt P78417); assay: ABPP-SILAC BPK-29yne competition in H460 cells: GSTO1
T5 construct: Isotopically labeled H460 cell lines were generated as described above; endogenous in cells; host or cells: H460 (SILAC-labelled)
Experimental: as §1, §2

TXN = target: T6, TXN (Homo sapiens, UniProt P10599); assay: ABPP-SILAC BPK-29yne competition in H460 cells: TXN
T6 construct: H460 cells or H460 cells expressing luciferase in a 10 cm plate were incubated with indicated compounds; endogenous in cells; host or cells: H460
Experimental: as §1, §2

T4 sequence (Q16881 whole entry): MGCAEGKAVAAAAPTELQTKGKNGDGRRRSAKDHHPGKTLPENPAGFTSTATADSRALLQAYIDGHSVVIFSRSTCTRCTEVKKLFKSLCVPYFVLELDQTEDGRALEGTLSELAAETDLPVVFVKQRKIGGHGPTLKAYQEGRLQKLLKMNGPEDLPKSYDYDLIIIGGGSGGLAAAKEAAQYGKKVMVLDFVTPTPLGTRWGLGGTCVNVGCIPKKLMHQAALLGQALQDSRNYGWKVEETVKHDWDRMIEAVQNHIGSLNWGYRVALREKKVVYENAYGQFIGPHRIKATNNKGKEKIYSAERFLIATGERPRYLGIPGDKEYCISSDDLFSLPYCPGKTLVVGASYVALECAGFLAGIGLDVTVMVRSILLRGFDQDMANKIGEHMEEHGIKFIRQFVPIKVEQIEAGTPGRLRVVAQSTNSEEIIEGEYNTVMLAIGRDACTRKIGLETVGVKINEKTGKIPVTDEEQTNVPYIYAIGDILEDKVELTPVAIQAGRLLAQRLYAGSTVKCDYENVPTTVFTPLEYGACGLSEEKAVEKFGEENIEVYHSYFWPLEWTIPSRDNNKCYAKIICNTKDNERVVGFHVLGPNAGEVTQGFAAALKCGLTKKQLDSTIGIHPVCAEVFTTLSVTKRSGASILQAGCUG
T5 sequence (P78417 whole entry): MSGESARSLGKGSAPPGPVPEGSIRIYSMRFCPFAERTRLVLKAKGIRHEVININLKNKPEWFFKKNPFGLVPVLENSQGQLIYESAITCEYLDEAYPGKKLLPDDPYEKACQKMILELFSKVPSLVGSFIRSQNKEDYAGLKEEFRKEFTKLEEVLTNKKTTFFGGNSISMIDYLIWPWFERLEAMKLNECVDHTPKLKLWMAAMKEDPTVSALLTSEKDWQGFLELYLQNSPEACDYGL
T3 sequence (O95881 27-172): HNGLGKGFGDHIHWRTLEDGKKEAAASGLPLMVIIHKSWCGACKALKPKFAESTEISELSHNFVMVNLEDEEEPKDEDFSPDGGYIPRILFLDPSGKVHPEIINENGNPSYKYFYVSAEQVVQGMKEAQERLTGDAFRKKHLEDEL
T6 sequence (P10599 whole entry): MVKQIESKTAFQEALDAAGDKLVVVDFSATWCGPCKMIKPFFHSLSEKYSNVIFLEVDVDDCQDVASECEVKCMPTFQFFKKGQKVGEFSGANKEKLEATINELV
T2 sequence (P00352 whole entry): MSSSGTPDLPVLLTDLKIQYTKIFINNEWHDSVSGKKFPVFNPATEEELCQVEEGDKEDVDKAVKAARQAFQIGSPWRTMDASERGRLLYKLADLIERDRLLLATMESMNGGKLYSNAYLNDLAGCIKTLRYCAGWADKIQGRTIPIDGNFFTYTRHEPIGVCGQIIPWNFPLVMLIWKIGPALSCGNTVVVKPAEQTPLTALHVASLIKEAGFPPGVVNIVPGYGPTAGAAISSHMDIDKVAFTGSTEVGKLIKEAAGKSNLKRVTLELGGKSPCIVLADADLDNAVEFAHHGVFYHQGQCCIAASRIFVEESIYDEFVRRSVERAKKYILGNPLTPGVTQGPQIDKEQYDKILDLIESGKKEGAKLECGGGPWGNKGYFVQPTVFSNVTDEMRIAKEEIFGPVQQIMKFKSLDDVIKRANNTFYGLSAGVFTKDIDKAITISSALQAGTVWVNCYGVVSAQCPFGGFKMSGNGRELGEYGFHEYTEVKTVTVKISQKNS
T1 sequence (Q5TFE4 whole entry): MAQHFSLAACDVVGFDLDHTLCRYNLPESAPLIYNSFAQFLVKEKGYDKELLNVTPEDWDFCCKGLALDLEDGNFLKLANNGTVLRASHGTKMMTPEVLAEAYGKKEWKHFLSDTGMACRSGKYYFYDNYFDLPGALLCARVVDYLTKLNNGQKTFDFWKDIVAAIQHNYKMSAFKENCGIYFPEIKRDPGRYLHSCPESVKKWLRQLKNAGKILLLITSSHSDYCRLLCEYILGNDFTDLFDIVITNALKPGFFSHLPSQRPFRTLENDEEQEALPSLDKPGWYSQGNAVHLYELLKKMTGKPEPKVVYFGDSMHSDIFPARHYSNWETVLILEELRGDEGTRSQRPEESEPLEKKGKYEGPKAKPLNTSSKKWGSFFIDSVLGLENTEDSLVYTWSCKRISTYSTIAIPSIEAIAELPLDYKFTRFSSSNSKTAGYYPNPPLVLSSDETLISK

**Q.** O=C(c1ccc(N2CCOCC2)cc1)N1CCCC(N(Cc2ccccc2)C(=O)CCl)CC1 (stereo not drawn) [BPK-29, N-benzyl-2-chloro-N-(1-(4-morpholinobenzoyl)azepan-4-yl)acetamide] was tested. Which “BPK-29-competed BPK-29yne analysis” value (NT5DC1) did it give?
**A.** Yes (Competed defined as showing R value ≥ 2.5 at 20 μM of test compound)

**Q.** What about the “BPK-29-competed BPK-29yne analysis” value (ALDH1A1) of the same molecule?
**A.** Yes (Competed defined as showing R value ≥ 2.5 at 20 μM of test compound)

**Q.** What about the “BPK-29-competed BPK-29yne analysis” value (TXNDC12) of the same molecule?
**A.** Yes (Competed defined as showing R value ≥ 2.5 at 20 μM of test compound)

**Q.** What about the “BPK-29-competed BPK-29yne analysis” value (TXNRD1) of the same molecule?
**A.** Yes (Competed defined as showing R value ≥ 2.5 at 20 μM of test compound)

**Q.** And the “BPK-29-competed BPK-29yne analysis” value (GSTO1)?
**A.** Yes (Competed defined as showing R value ≥ 2.5 at 20 μM of test compound)

**Q.** And the “BPK-29-competed BPK-29yne analysis” value (TXN)?
**A.** Yes (Competed defined as showing R value ≥ 2.5 at 20 μM of test compound)
